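Growth conditions: 96-well plates. Treatment: test compound, 48 hours, 5 concentrations. Analysis: linear interpolation between bracketing concentrations; unreached endpoints set to highest concentration. GI50: concentration for 50% inhibition of growth.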 Active and inactive are the calls of the source. Rule as the data show it: active = GI50 up to about 1.1 µM and inactive = higher.
Columns and labels:
Assay in all cases: growth of human tumour cells (NCI), 48 h
[1] = test system: MDA-N
[2] = test system: T47D
[3] = test system: HOP-92
[4] = test system: MDA-MB-435
[5] = test system: Hs-578T
[6] = test system: UACC-62
[7] = test system: PC-3
[8] = test system: SK-MEL-5
[9] = test system: A549
[10] = test system: EKVX
[11] = test system: TK-10
[12] = test system: SNB-75
[13] = test system: NCI-H23
[14] = test system: OVCAR-5
[15] = test system: UACC-257
[16] = test system: MCF7
[17] = test system: HT-29
[18] = test system: U-251
[19] = test system: RPMI-8226
[20] = test system: Malme-3M

SMILES | GI50 [1] | GI50 [2] | GI50 [3] | GI50 [4] | GI50 [5] | GI50 [6] | GI50 [7] | GI50 [8] | GI50 [9] | GI50 [10] | GI50 [11] | GI50 [12] | GI50 [13] | GI50 [14] | GI50 [15] | GI50 [16] | GI50 [17] | GI50 [18] | GI50 [19] | GI50 [20]
C/C=C/C[C@@H](C)C(=O)C1C(=O)N[C@@H](C(C)C)C(=O)N(C)CC(=O)N(C)[C@@H](CC(C)C)C(=O)N[C@@H](C(C)C)C(=O)N(C)[C@@H](CC(C)C)C(=O)N[C@@H](C)C(=O)N[C@@H](C)C(=O)N(C)[C@@H](CC(C)C)C(=O)N(C)[C@@H](CC(C)C)C(=O)N(C)[C@@H](C(C)C)C(=O)N1C (some centres undefined) | 2.39 µM (inactive) | 3.03 µM (inactive) | 7.26 µM (inactive) | 3.35 µM (inactive) | 6.21 µM (inactive) | 4.5 µM (inactive) | 0.703 µM (active) | 2.99 µM (inactive) | 3.97 µM (inactive) | 8.51 µM (inactive) | 6.1 µM (inactive) | 4.98 µM (inactive) | 7.83 µM (inactive) | 7.87 µM (inactive) | 5.33 µM (inactive) | 3.95 µM (inactive) | 3.8 µM (inactive) | 5.94 µM (inactive) |  | 
CC(NC(=O)C(N)CC(=O)O)NC(=O)N1CCOCC1 (centres undefined) | > 100 µM (inactive) |  |  | > 100 µM (inactive) | > 100 µM (inactive) | 19.1 µM (inactive) | > 100 µM (inactive) | > 100 µM (inactive) | > 100 µM (inactive) | > 100 µM (inactive) | > 100 µM (inactive) | > 100 µM (inactive) | > 100 µM (inactive) | > 100 µM (inactive) | > 100 µM (inactive) | > 100 µM (inactive) | > 100 µM (inactive) | > 100 µM (inactive) | > 100 µM (inactive) | > 100 µM (inactive)
O=[N+]([O-])c1ccc(Sc2c3ccccc3nc3ccccc23)cn1 | 14.3 µM (inactive) | 4.92 µM (inactive) | 4.28 µM (inactive) | 16.7 µM (inactive) | 18 µM (inactive) | 18.7 µM (inactive) | 15.5 µM (inactive) | 35.1 µM (inactive) | > 100 µM (inactive) | > 57.4 µM (inactive) | 10.1 µM (inactive) | 24.9 µM (inactive) | 15.9 µM (inactive) | > 62.4 µM (inactive) | 15.5 µM (inactive) | 4.48 µM (inactive) | 9.02 µM (inactive) | > 44.2 µM (inactive) |  | 3.24 µM (inactive)
CCOC(=O)C(C/C=C/CO)N(C)C(=O)OC(C)(C)C (centres undefined) | > 100 µM (inactive) | > 100 µM (inactive) | > 100 µM (inactive) |  | 53.5 µM (inactive) | > 100 µM (inactive) | > 100 µM (inactive) | > 100 µM (inactive) | > 100 µM (inactive) | > 100 µM (inactive) | > 100 µM (inactive) | 50.9 µM (inactive) | > 100 µM (inactive) | > 100 µM (inactive) | > 100 µM (inactive) | > 100 µM (inactive) | > 100 µM (inactive) | > 100 µM (inactive) | > 100 µM (inactive) | 
Cc1ccc(C(=O)C2C=C(c3ccc(C)cc3)SC3C=CCC32)cc1 (centres undefined) | 14.8 µM (inactive) | 20.5 µM (inactive) | 17.8 µM (inactive) | 14.4 µM (inactive) | 26.1 µM (inactive) | 17.9 µM (inactive) | 18.1 µM (inactive) | 15.5 µM (inactive) | 22.9 µM (inactive) | 34.8 µM (inactive) | 25.3 µM (inactive) |  | 24.2 µM (inactive) | 18.4 µM (inactive) | 21.7 µM (inactive) |  | 21.4 µM (inactive) | 17.9 µM (inactive) | 16.3 µM (inactive) | 16.3 µM (inactive)
O=[N+]([O-])c1ccc(N/N=C2/CC3=C2CCCCCCCCCC3)c([N+](=O)[O-])c1 | > 100 µM (inactive) | > 100 µM (inactive) |  | > 100 µM (inactive) | 39.3 µM (inactive) | > 100 µM (inactive) | > 100 µM (inactive) | > 100 µM (inactive) | > 100 µM (inactive) | > 100 µM (inactive) | 94.4 µM (inactive) | 44.4 µM (inactive) | > 100 µM (inactive) | > 100 µM (inactive) | > 100 µM (inactive) | > 100 µM (inactive) | > 100 µM (inactive) | > 100 µM (inactive) | > 100 µM (inactive) | > 100 µM (inactive)
O=C(O)Cc1ccc(Nc2nc3ccccc3nc2C(=O)O)cc1 | > 100 µM (inactive) | > 100 µM (inactive) | > 100 µM (inactive) | > 100 µM (inactive) | > 100 µM (inactive) | > 100 µM (inactive) | > 100 µM (inactive) | > 100 µM (inactive) | > 100 µM (inactive) | > 100 µM (inactive) | > 100 µM (inactive) | > 100 µM (inactive) | > 100 µM (inactive) | > 100 µM (inactive) | > 100 µM (inactive) | > 100 µM (inactive) | > 100 µM (inactive) | > 100 µM (inactive) |  | > 100 µM (inactive)

From ChEMBL document CHEMBL1201862, “PubChem BioAssay data set” (2004)
